Assay results published in ChEMBL document CHEMBL1165992, “A statistical analysis of in vitro human microsomal metabolic stability of small phenyl group substituents, leading to improved design sets for parallel SAR exploration of a chemical series” (Bioorg Med Chem, 2010).

Assays:
in vitro = settings: human
Description: Intrinsic clearance in human liver microsomes assessed per mg of microsomal protein at 0.2 to 1 uM after 30 mins by HPLC analysis

[1] = target: 11-beta-hydroxysteroid dehydrogenase 1 (Homo sapiens, UniProt P28845); test: Inhibition of human 11beta-HSD1 by competitive binding assay
Chain of 11-beta-hydroxysteroid dehydrogenase 1 (P28845 whole entry): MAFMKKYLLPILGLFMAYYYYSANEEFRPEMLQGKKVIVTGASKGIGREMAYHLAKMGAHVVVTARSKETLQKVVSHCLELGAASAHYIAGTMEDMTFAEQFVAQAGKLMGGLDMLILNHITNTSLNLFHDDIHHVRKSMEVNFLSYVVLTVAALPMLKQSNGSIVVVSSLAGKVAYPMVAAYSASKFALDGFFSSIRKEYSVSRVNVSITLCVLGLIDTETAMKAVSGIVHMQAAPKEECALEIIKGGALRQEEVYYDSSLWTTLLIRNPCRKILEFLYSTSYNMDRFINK

SMILES | microsomal CLint at 0.5 h, 1 µM (in vitro; liver microsomes) | microsomal CLint at 0.5 h, 1 µM (in vitro; microsomes) | IC50 [1]
COc1cccc(C(=O)N2CCC(C(=O)c3ccc(F)cc3)CC2)c1 | 12.9 µL/min/mg | – | –
Cc1ncc(-c2ccnc(Nc3ccccc3)n2)n1C(C)C | 63.5 µL/min/mg | – | –
CCN(C(=O)NCc1ccc(F)cc1)C1CCN(CCC(c2ccccc2)c2ccccc2)CC1 | – | 105 µL/min/mg | –
O=C(c1ccc(F)cc1)C1CCN(C(=O)c2ccc(Cl)c(Cl)c2)CC1 | 16.5 µL/min/mg | – | –
Cc1ccccc1C(=O)N1CCC(C(=O)c2ccc(F)cc2)CC1 | 23.5 µL/min/mg | – | –
CCN(C(=O)NCc1c(F)cccc1F)C1CCN(CCC(c2ccccc2)c2ccccc2)CC1 | 6 µL/min/mg | – | –
CC(=O)c1ccc(C(=O)N2CCC(C(=O)c3ccc(F)cc3)CC2)cc1 | 19.8 µL/min/mg | – | –
O=C(c1ccc(F)cc1)C1CCN(C(=O)c2ccc(F)cc2Cl)CC1 | 18 µL/min/mg | – | –
Cc1cccc(C(=O)N2CCC(C(=O)c3ccc(F)cc3)CC2)c1 | 43.6 µL/min/mg | – | –
CCN(C(=O)NCc1ccccc1F)C1CCN(CCC(c2ccccc2)c2ccccc2)CC1 | 74 µL/min/mg | – | –
NS(=O)(=O)c1ccc(C(=O)N2CCC(C(=O)c3ccc(F)cc3)CC2)cc1 | 12.3 µL/min/mg | – | > 30 µM
O=C(c1ccc(F)cc1)C1CCN(C(=O)c2cccc(F)c2)CC1 | 31.9 µL/min/mg | – | –
CS(=O)(=O)Nc1cccc(C(=O)N2CCC(C(=O)c3ccc(F)cc3)CC2)c1 | 9.23 µL/min/mg | – | > 30 µM
O=C(c1ccc(F)cc1)C1CCN(C(=O)c2ccc(F)cc2)CC1 | 17.1 µL/min/mg | – | 21.8 µM
CCN(C(=O)NCc1cc(F)ccc1F)C1CCN(CCC(c2ccccc2)c2ccccc2)CC1 | < 4 µL/min/mg | – | –
O=C(c1ccc(F)cc1)C1CCN(C(=O)c2ccc(Cl)c(C(F)(F)F)c2)CC1 | 11.5 µL/min/mg | – | –
NS(=O)(=O)c1cccc(C(=O)N2CCC(C(=O)c3ccc(F)cc3)CC2)c1 | 13 µL/min/mg | – | > 30 µM
N#Cc1ccccc1C(=O)N1CCC(C(=O)c2ccc(F)cc2)CC1 | 28.4 µL/min/mg | – | –
O=C(c1ccc(F)cc1)C1CCN(C(=O)c2cccc(F)c2F)CC1 | 18 µL/min/mg | – | > 30 µM
O=C(c1ccc(F)cc1)C1CCN(C(=O)c2cccc(Cl)c2)CC1 | 22.2 µL/min/mg | – | –
CN(C)c1cccc(C(=O)N2CCC(C(=O)c3ccc(F)cc3)CC2)c1 | 53.5 µL/min/mg | – | –
O=C(c1ccc(F)cc1)C1CCN(C(=O)c2cccc(OC(F)(F)F)c2)CC1 | 31.8 µL/min/mg | – | –
O=C(c1ccc(F)cc1)C1CCN(C(=O)c2cccc(C(F)(F)F)c2)CC1 | 13.7 µL/min/mg | – | –
O=C(c1ccc(F)cc1)C1CCN(C(=O)c2cccc(Br)c2)CC1 | 19.3 µL/min/mg | – | –
CS(=O)(=O)c1ccc(C(=O)N2CCC(C(=O)c3ccc(F)cc3)CC2)cc1 | 12.4 µL/min/mg | – | > 30 µM
O=C(c1ccc(F)cc1)C1CCN(C(=O)c2ccc(Cl)cc2)CC1 | 18.6 µL/min/mg | – | 6.02 µM
O=C(c1ccc(F)cc1)C1CCN(C(=O)c2ccc(N3CCOCC3)cc2)CC1 | 15.2 µL/min/mg | – | –
COc1cccc(C(=O)N2CCC(C(=O)c3ccc(F)cc3)CC2)c1OC | 14.9 µL/min/mg | – | –

SMILES | microsomal CLint at 0.5 h, 1 µM (in vitro; liver microsomes) | microsomal CLint at 0.5 h, 1 µM (in vitro; microsomes) | IC50 [1]
O=C(c1ccc(F)cc1)C1CCN(C(=O)c2ccccc2F)CC1 | 46.5 µL/min/mg | – | 7.44 µM
CCN(C(=O)NCc1ccc(S(C)(=O)=O)cc1)C1CCN(CCC(c2ccccc2)C2CCN(Cc3ccc4ccccc4n3)CC2)CC1 (configuration not stated) | > 150 µL/min/mg | – | –
CCN(C(=O)NCc1ccc(S(C)(=O)=O)cc1)C1CCN(CCC(c2ccc(F)cc2)C2CCN(Cc3ccc4ccccc4n3)CC2)CC1 (configuration not stated) | 3 µL/min/mg | – | –
COc1ccccc1C(=O)N1CCC(C(=O)c2ccc(F)cc2)CC1 | 14.3 µL/min/mg | – | 23.6 µM
O=C(c1ccc(F)cc1)C1CCN(C(=O)c2ccccc2)CC1 | 23 µL/min/mg | – | 3.61 µM
O=C(c1ccc(F)cc1)C1CCN(C(=O)c2ccc(F)c(F)c2)CC1 | 12.5 µL/min/mg | – | –
O=C(c1ccc(F)cc1)C1CCN(C(=O)c2ccc(-c3ccccc3)cc2)CC1 | 4.93 µL/min/mg | – | –
O=C(c1ccc(F)cc1)C1CCN(C(=O)c2ccc(Br)cc2)CC1 | 22.7 µL/min/mg | – | –
Cc1ccc(C(=O)N2CCC(C(=O)c3ccc(F)cc3)CC2)cc1 | 41.8 µL/min/mg | – | 3.41 µM
COc1ccc(C(=O)N2CCC(C(=O)c3ccc(F)cc3)CC2)cc1 | 22.6 µL/min/mg | – | 15.8 µM
O=C(c1ccc(F)cc1)C1CCN(C(=O)c2ccccc2Cl)CC1 | 32.6 µL/min/mg | – | –
CCN(C(=O)NCc1cc(F)cc(F)c1)C1CCN(CCC(c2ccccc2)c2ccccc2)CC1 | < 3 µL/min/mg | – | –
O=C(c1ccc(F)cc1)C1CCN(C(=O)c2ccc(Cl)cc2Cl)CC1 | 41.2 µL/min/mg | – | > 30 µM
O=C(c1ccc(F)cc1)C1CCN(C(=O)c2cccc([N+](=O)[O-])c2)CC1 | 5.3 µL/min/mg | – | –
CCN(C(=O)NCc1ccc(S(C)(=O)=O)cc1)C1CCN(CCC(c2ccccc2)C2CCN(Cc3cccnc3)CC2)CC1 (configuration not stated) | > 150 µL/min/mg | – | –
O=C(c1ccc(F)cc1)C1CCN(C(=O)c2ccc([N+](=O)[O-])cc2)CC1 | 9 µL/min/mg | – | –
O=C(c1ccc(F)cc1)C1CCN(C(=O)c2ccc(C(F)(F)F)cc2)CC1 | 15.5 µL/min/mg | – | –
N#Cc1cccc(C(=O)N2CCC(C(=O)c3ccc(F)cc3)CC2)c1 | 14.5 µL/min/mg | – | > 30 µM
COc1ccc(C(=O)N2CCC(C(=O)c3ccc(F)cc3)CC2)c(OC)c1 | 15.8 µL/min/mg | – | –
CCN(C(=O)NCc1ccc(S(C)(=O)=O)cc1)C1CCN(CCC(c2ccc(F)cc2)C2CCN(Cc3cccnc3)CC2)CC1 (configuration not stated) | 5 µL/min/mg | – | –
CS(=O)(=O)c1cccc(C(=O)N2CCC(C(=O)c3ccc(F)cc3)CC2)c1 | 11.4 µL/min/mg | – | > 30 µM
O=C(c1ccc(F)cc1)C1CCN(C(=O)c2ccccc2OC(F)(F)F)CC1 | 16.9 µL/min/mg | – | –
O=C(c1ccc(F)cc1)C1CCN(C(=O)c2ccc(OC(F)(F)F)cc2)CC1 | 17.9 µL/min/mg | – | –
O=C(c1ccc(F)cc1)C1CCN(C(=O)c2cc(F)cc(F)c2)CC1 | 25.3 µL/min/mg | – | > 30 µM
CCN(C(=O)NCc1cccc(F)c1)C1CCN(CCC(c2ccccc2)c2ccccc2)CC1 | 86 µL/min/mg | – | –
N#Cc1ccc(C(=O)N2CCC(C(=O)c3ccc(F)cc3)CC2)cc1 | 11.7 µL/min/mg | – | > 30 µM
Nc1ccccc1C(=O)N1CCC(C(=O)c2ccc(F)cc2)CC1 | 15.6 µL/min/mg | – | –
